system: P. falciparum Dd2 wildtype; assay: SYBR Green I asexual blood stage growth assay, Dd2 wildtype; assay type: cell-based; conditions: Plasmodium falciparum, DD2, 72 h, read-out: P. falciparum Dd2 wildtype Asexual blood stage EC50 (nM)
Experimental: (§1) P. falciparum parasite growth was determined using a fluorescence assay based on the SYBR Green I method according to previously reported protocols (see e.g., Johnson et al, Antimicrob. Agents Chemother. 2007, 51(6):1926-1933). P. falciparum parasites were seeded in 384-well plates at 1% hematocrit and 1% starting parasitemia. Growth was assessed by SYBR Green staining of parasite DNA after 72-hour exposure to compound. All dose-response assays were carried out with 12-point dilutions in technical triplicate. Compounds were dispensed with an HP D300 Digital Dispenser (Hewlett Packard, Palo Alto, Calif., USA). Fluorescence intensity measurements were performed on a SpectraMax M5 (Molecular Devices, Sunnyvale, Calif., USA) and analyzed in GraphPad Prism version 7 (GraphPad Software, La Jolla, Calif., USA) after background subtraction and normalization to control wells. EC50 values were determined using a four-parameter nonlinear regression curve fit from at least three assays and are represented as mean±standard deviation. Statistical significance was determined by the Mann Whitney test.

Row | Compound | EC50 [nM]
1 | O=C(CCCC(=O)NC1(C(=O)Nc2nccnc2C(=O)NC2Cc3ccccc3C2)CCCCC1)NCCOCCOCCNC(=O)COc1cccc2c1C(=O)N(C1CCC(=O)NC1=O)C2=O (stereo not drawn) [Compound 33] | 8540

same assay, conditions: Plasmodium falciparum, DD2; 72-hour exposure, SYBR Green; read-out: P. falciparum Dd2 wildtype Asexual blood stage EC50

Row | Compound | EC50 [nM]
2 | O=C(NC1Cc2ccccc2C1)c1nccnc1NC(=O)N1CCCCC1 [Compound 18] | 63
3 | O=C(O)c1nccnc1C(=O)NC1Cc2ccccc2C1 [Compound 27] | > 10000
4 | O=c1[nH]c2nccnc2c(=O)n1C1Cc2ccccc2C1 [Compound 25] | > 10000
5 | O=C(Nc1nccnc1C(=O)NC1Cc2ccccc2C1)c1ccccc1 [Compound 24] | > 10000
6 | O=C(NC1Cc2ccccc2C1)c1nccnc1N(C(=O)C1CCCCC1)C(=O)C1CCCCC1 [Compound 22] | 627
7 | Nc1nccnc1C(=O)NC1Cc2ccccc2C1 [Compound 15] | > 10000
8 | O=C(C[C@H]1NCCC[C@@H]1OC(=O)NCCCCNC(=O)Nc1nccnc1C(=O)NC1Cc2ccccc2C1)Cn1cnc2cc(Br)c(Cl)cc2c1=O [Compound 2] | > 10000
9 | CC(C)N(C(=O)Nc1nccnc1C(=O)NC1Cc2ccccc2C1)C(C)C [Compound 8] | 499
10 | O=C(O)CCCC(=O)Nc1nccnc1C(=O)NC1Cc2ccccc2C1 [Compound 5] | > 10000
11 | CN(C(=O)c1nccnc1N)C1Cc2ccccc2C1 [Compound 38] | > 10000
12 | Nc1nccnc1C(=O)NC1CCCCC1 [Compound 29] | > 10000
13 | O=C(NC1Cc2ccccc2C1)c1nccnc1NC(=O)C1CCCCC1 [Compound 16] | 544
14 | CC(C)(C)OC(=O)NC1(C(=O)Nc2nccnc2C(=O)NC2Cc3ccccc3C2)CCCCC1 [Compound 32] | 9520
15 | CC(C)(C)OC(=O)N1CCC[C@H]1C(=O)NCCCCNC(=O)Nc1nccnc1C(=O)NC1Cc2ccccc2C1 [Compound 3] | > 10000
16 | Nc1nccnc1C(=O)NCc1ccc(Cl)cc1 [Compound 12] | > 10000
17 | O=C(NCCCCNC(=O)[C@@H]1CCCN1)Nc1nccnc1C(=O)NC1Cc2ccccc2C1 [Compound 4] | > 10000

The remaining lines, values ahead:

Row | EC50 [nM] | Compound
18 | > 10000 | O=C(NC1CCCCC1)c1nccnc1C(=O)NC1Cc2ccccc2C1 [Compound 28]
19 | 4840 | NC1(C(=O)Nc2nccnc2C(=O)NC2Cc3ccccc3C2)CCCCC1 [Compound 34]
20 | 3540 | O=C(NC1Cc2ccccc2C1)c1nccnc1NC(=O)C1CCC1 [Compound 9]
21 | 1350 | O=C(NC1Cc2ccccc2C1)c1nccnc1NC(=O)C1(O)CCCCC1 [Compound 21]
22 | > 10000 | NCCCCNC(=O)Nc1nccnc1C(=O)NC1Cc2ccccc2C1 [Compound 1]
23 | > 10000 | CNc1nccnc1C(=O)NC1Cc2ccccc2C1 [Compound 31]
24 | > 10000 | O=C(Nc1nccnc1C(=O)NC1Cc2ccccc2C1)NC1CCCCC1 [Compound 36]
25 | > 10000 | O=C(Nc1nccnc1C(=O)NC1Cc2ccccc2C1)NC12CC3CC(CC(C3)C1)C2 [Compound 39]
26 | 73 | C[C@@H]1CCC[C@H](C)N1C(=O)Nc1nccnc1C(=O)NC1Cc2ccccc2C1 [Compound 14]
27 | 2990 | O=C(NC1Cc2ccccc2C1)c1nccnc1NC(=O)C1CCCCN1 (stereo not drawn) [Compound 7]
28 | > 10000 | O=C(NC1Cc2ccccc2C1)c1nccnc1NS(=O)(=O)C1CCCCC1 [Compound 17]
29 | > 10000 | O=C(NC1Cc2ccccc2C1)c1nccnc1NCC1CCCCC1 [Compound 37]
30 | 9540 | O=C(NC1CCCCC1)c1nccnc1NC(=O)C1Cc2ccccc2C1 [Compound 30]
31 | 8270 | O=C(NC1Cc2ccccc2C1)c1nccnc1NC(=S)NC1CCCCC1 [Compound 35]
32 | > 10000 | O=C(NC1Cc2ccccc2C1)c1nccnc1NC(=O)C1CCOCC1 [Compound 20]
33 | 9960 | NC(=O)Nc1nccnc1C(=O)NC1Cc2ccccc2C1 [Compound 26]
34 | 386 | CC(C)(C)OC(=O)N[C@H]1CC[C@@H](C(=O)Nc2nccnc2C(=O)NC2Cc3ccccc3C2)CC1 [Compound 23]
35 | 173 | CC1(C(=O)Nc2nccnc2C(=O)NC2Cc3ccccc3C2)CCCCC1 [Compound 19]
36 | 6200 | O=C(NC1Cc2ccccc2C1)c1nccnc1NC(=O)N1CCCC(C(=O)O)C1 (stereo not drawn) [Compound 11]
37 | 3790 | CC(C)(C)OC(=O)N1CCCCC1C(=O)Nc1nccnc1C(=O)NC1Cc2ccccc2C1 (stereo not drawn) [Compound 6]
38 | 4940 | O=C(NC1Cc2ccccc2C1)c1nccnc1NC(=O)N(C1CCCCC1)C1CCCCC1 [Compound 13]
39 | 1830 | CN1CCN(C(=O)Nc2nccnc2C(=O)NC2Cc3ccccc3C2)CC1 [Compound 10]

system: HFG-tolerant 3D7 parasites; assay: Antiparasitic activity in HFG-tolerant 3D7 parasites; assay type: cell-based; conditions: Plasmodium falciparum, 3D7, read-out: EC50 in HFG-tolerant parasites
Experimental: as §1, with “test. […]” for “test.”

Row | Compound | EC50 [µM]
40 | O=C(NC1Cc2ccccc2C1)c1nccnc1NC(=O)N1CCCCC1 [Compound 18] | 0.13

system: P. falciparum; assay: not given; conditions: read-out: EC50 against P. falciparum in whole-cell assays; cited from earlier work

Row | Compound | EC50 [µM]
41 | Nc1ncnc2c1ncn2[C@@H]1O[C@H](COS(=O)(=O)NC(=O)[C@@H]2CCCN2)[C@@H](O)[C@H]1O [ProSA, L-prolyl-sulfamoyl adenosine] | 0.097

system: eIF2α phosphorylation; assay: not given; conditions: cited from earlier work

Row | Compound | eIF2α phosphorylation
42 | Nc1ncnc2c1ncn2[C@@H]1O[C@H](COS(=O)(=O)NC(=O)[C@@H]2CCCN2)[C@@H](O)[C@H]1O [ProSA, L-prolyl-sulfamoyl adenosine] | induces eIF2α phosphorylation

system: wild-type 3D7 parasites; assay: Antiparasitic activity in wild-type 3D7 parasites; assay type: cell-based; conditions: Plasmodium falciparum, 3D7, read-out: EC50 in wild-type parasites
Experimental: as §1, with “test. […]” for “test.”

Row | Compound | EC50 [µM]
43 | O=C(NC1Cc2ccccc2C1)c1nccnc1NC(=O)N1CCCCC1 [Compound 18] | 0.078

system: P. falciparum Dd2 (10× resistence to halofuginone); assay: SYBR Green I asexual blood stage growth assay, Dd2 10x halofuginone-resistant; assay type: cell-based; conditions: Plasmodium falciparum, DD2, 72 h, read-out: P. falciparum Dd2 (10× resistence to halofuginone) Asexual blood stage IC50 (nM)
Experimental: as §1

Row | Compound | IC50 [nM]
44 | O=C(NC1Cc2ccccc2C1)c1nccnc1NC(=O)N1CCCCC1 [Compound 18] | 130
45 | O=C(NC1Cc2ccccc2C1)c1nccnc1NC(=O)C1CCCCC1 [Compound 16] | 1160

system: P. falciparum Dd2 (>100× resistence to halofuginone); assay: SYBR Green I asexual blood stage growth assay, Dd2 >100x halofuginone-resistant; assay type: cell-based; conditions: Plasmodium falciparum, DD2, 72 h, read-out: P. falciparum Dd2 (>100× resistence to halofuginone) Asexual blood stage IC50 (nM)
Experimental: as §1

Row | Compound | IC50 [nM]
46 | O=C(NC1Cc2ccccc2C1)c1nccnc1NC(=O)N1CCCCC1 [Compound 18] | 74

molecular target: T1, Plasmodium falciparum cytoplasmic prolyl tRNA synthetase (PfcPRS) (Plasmodium falciparum, UniProt Q8I5R7); assay: Thermal shift (differential scanning fluorimetry) assay; assay type: binding; conditions: not given
T1 sequence (Q8I5R7 1-746): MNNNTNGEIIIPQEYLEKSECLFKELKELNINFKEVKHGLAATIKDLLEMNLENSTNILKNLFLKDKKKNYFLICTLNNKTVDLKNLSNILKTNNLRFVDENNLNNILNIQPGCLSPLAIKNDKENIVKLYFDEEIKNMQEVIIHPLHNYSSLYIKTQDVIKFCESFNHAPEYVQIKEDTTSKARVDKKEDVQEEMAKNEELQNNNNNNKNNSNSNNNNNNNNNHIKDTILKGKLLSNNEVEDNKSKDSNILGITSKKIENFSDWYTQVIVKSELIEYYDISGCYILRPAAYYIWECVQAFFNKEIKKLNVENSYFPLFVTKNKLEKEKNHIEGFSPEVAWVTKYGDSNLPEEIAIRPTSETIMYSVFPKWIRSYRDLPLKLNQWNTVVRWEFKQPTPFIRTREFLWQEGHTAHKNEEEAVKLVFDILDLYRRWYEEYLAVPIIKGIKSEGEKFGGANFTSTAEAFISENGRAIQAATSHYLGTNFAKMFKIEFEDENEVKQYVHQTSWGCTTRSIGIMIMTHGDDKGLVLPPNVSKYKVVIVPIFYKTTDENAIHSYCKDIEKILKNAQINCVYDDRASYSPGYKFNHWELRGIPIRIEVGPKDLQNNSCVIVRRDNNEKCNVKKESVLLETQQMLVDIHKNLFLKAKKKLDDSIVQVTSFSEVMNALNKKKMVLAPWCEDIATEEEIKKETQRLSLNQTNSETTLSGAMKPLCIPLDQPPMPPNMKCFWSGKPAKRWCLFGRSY
Experimental: Thermal shift assays were performed in tetricate as previously described (Hewitt et al., 2016). 12.5 μL solutions of 0.14 mg/mL purified recombinant Plasmodium falciparum cytoplasmic prolyl tRNA synthetase (PfcPRS) in a buffer containing […] test compounds (1 mM Compound 18+1 mM Proline; 1 mM Compound 18+0 mM Proline; or DMSO vehicle control), 25 mM HEPES, pH 7.0, 100 mM NaCl, 5 v/v % glycerol, 1 mM TCEP, and optionally 1 mM Proline were incubated at 37° C. for 2 hours in 96 well PCR plates. To this was added 2.5 μL 8× SYRPO Orange Dye (Applied Biosystems 4461141) and 5 μL Protein Thermal Shift Buffer (Applied Biosystems 4461335). Protein stability for protein samples containing the test compounds was compared with apo protein samples by measuring an increase in fluorescence as detected on an Applied Biosystems SDS 7500 Fast qPCR Thermocycler from 25° C. to 99° C. at half degree increments.

Row | Compound | Binding mode to PfcPRS relative to proline
47 | O=C(NC1Cc2ccccc2C1)c1nccnc1NC(=O)N1CCCCC1 [Compound 18] | binds PfcPRS in proline-uncompetitive fashion

same assay, conditions: with 1 mM vs 0 mM Proline, FIG. 3C

Row | Compound | Effect of proline on binding to PfcPRS (differential scanning fluorimetry)
48 | O=C(NC1Cc2ccccc2C1)c1nccnc1NC(=O)N1CCCCC1 [Compound 18] | Pro potentiates Compound 18 binding to PfcPRS

From patent US11708353B2, “Inhibitors of prolyl-tRNA-synthetase” (The General Hospital Corporation, priority 2018, dated 2023)
